ChEMBL document CHEMBL5715936, “Selective Itk inhibitors block T-cell activation and murine lung inflammation” (Biochemistry, 2004)
Active and inactive are the calls of the source. The calls are words filed in the database; no cut-off is given here.

What was measured:
[1] = system: Mus musculus; assay: In vivo inhibition of IL-2 production in Balb/c mouse serum at >=50 mg/kg, sc administered for 15 mins in presence of anti-CD3 antibody by ELISA analysis; assay type: functional, organism-based
[2] = biological target: Protein kinase C (PKC); assay: Inhibition of PKC (unknown origin) using GST-SLP-76 as peptide substrate incubated for 10 mins in presence of [gamma-33P]ATP by scintillation counter assay; assay type: protein assay, Homo sapiens
[3] = system: Mus musculus; assay: Anti-inflammatory activity against ovalbumin induced Balb/c mouse bronchoalveolar lavage assessed as reduction in eosinophil infiltration administered twice daily for 3 days by microscopic analysis; assay type: functional, organism-based; conditions: dose 5-25 mg/kg, route sc, time 3.0 day
[4] = system: Mus musculus; assay: Anti-inflammatory activity against ovalbumin induced Balb/c mouse bronchoalveolar lavage assessed as reduction in total cell infiltration administered twice daily for 3 days by microscopic analysis; assay type: functional, organism-based; conditions: dose 5-25 mg/kg, route sc, time 3.0 day
[5] = biological target: Cyclin-dependent kinase 2 (Homo sapiens, UniProt P24941); assay: Inhibition of Cdk2 (unknown origin) using GST-SLP-76 as peptide substrate incubated for 10 mins in presence of [gamma-33P]ATP by scintillation counter assay

IC50 [2] | IC50 [5] | SMILES | inhibition [1] | Activity [3] | Activity [4]
21 µM | – | CC(=O)N1CCN(C(=O)c2cc(CSc3cnc(NC(=O)c4ccc(CNC(C)C(C)(C)C)cc4)s3)cc(C)c2C)CC1 (stereo not given) | Active | – | –
– | 29 µM | COc1cc(C)c(Sc2cnc(NC(=O)c3ccc(CNC(C)C(C)(C)C)cc3)s2)cc1C(=O)N1CCN(C(C)=O)CC1 (stereo not given) | – | Dose-Dependent Effect | Dose-Dependent Effect
